The text below walks through data of the RepoRT retention time repository (doi:10.1007/s11306-011-0298-z).

This series can be described thus: RP, Waters ACQUITY UPLC HSS T3, 100 × 2.1 mm, 1.8 µm, 30 °C, 0.3 mL/min, estimated dead time 0.73 min; A: water + 0.1% formic acid, pH 3; B: methanol + 0.1% formic acid, pH 3; gradient (min/%B) 0/0 6/0 56/100 60/100. Particulars: stereoisomer not certain.
For the compound `Cc1cc2nc3c(=O)[nH]c(=O)nc-3n(CC(O)C(O)C(O)CO)c2cc1C` (stereo not drawn) [riboflavin], the LC retention time is 23.9 min. Turning to `O=C(O)c1ccccc1O` [salicylic acid], the LC retention time is 26.4 min. As to `CCCCCCCCCCCCCCCCCC(=O)OCCCC` [Butyl stearate], the LC retention time is 59.5 min. With `COc1cc(O)c2c(=O)c(O)c(-c3ccc(O)c(OC)c3)oc2c1` [rhamnazin] the figure was 42.2 min; with `O=C1CC(c2ccc(O)cc2)Oc2cc(O)cc(O)c21` (stereo not drawn) [naringenin], 33.8 min.

Turning to `COc1cc(-c2oc3cc(O)cc(O)c3c(=O)c2OC2OC(CO)C(O)C(O)C2O)cc(OC)c1O` (stereo not drawn) [syringetin-3-galactoside], the LC retention time is 31.6 min. With `CC(=O)CCc1ccc(O)cc1` [4-(4-hydroxyphenyl)butan-2-one], the LC retention time was 24.6 min. Take `Cc1cc2nc3c(=O)[nH]c(=O)nc-3n(CC(O)C(O)C(O)COP(=O)(O)OP(=O)(O)OCC3OC(n4cnc5c(N)ncnc54)C(O)C3O)c2cc1C` (stereo not drawn) [FAD]: the LC retention time is 20.7 min. With `O=C(CO)C(O)C(O)C(O)CO` (stereo not drawn) [D(-)fructose] the figure was 1.4 min; with `OCC1OC(Oc2cc(O)cc(C=Cc3ccc(O)cc3)c2)C(O)C(O)C1O` (stereo not drawn) [cis-piceid], 27.2 min; with `COc1cc(-c2oc3cc(=O)cc(OC4OC(CO)C(O)C(O)C4O)c-3cc2OC2OC(CO)C(O)C(O)C2O)cc(OC)c1O` (stereo not drawn) [malvidin-3,5-diglucoside], 20.7 min.

As to `OC1C(O)C(O)C(O)C(O)C1O` (stereo not drawn) [myo-inositol], the LC retention time was 1.22 min.

Turning to `O=C(O)CC(Nc1ncnc2c1ncn2C1OC(COP(=O)(O)O)C(O)C1O)C(=O)O` (stereo not drawn) [Adenylosuccinic acid], the LC retention time is 12.7 min.

`CC(O)(CC(=O)O)CC(=O)O` [3-hydroxy-3-methyl glutaric acid]: the LC retention time was 7.04 min. With `CCCCCCCCCCCCCCCC(=O)O` [palmitic acid] the figure was 54.4 min; with `CCCCCCCCCCCCCC(=O)OC` [methyl myristate], 54.4 min.

`C=CCc1ccc(OC(C)=O)c(OC)c1` [eugenyl acetate]: the LC retention time was 38.3 min. With `O=c1c(O)c(-c2ccccc2)oc2cc(O)cc(O)c12` [galangin] the figure was 41.4 min.

For the compound `Nc1ncnc2c1ncn2C1OC(COP(=O)(O)OP(=O)(O)OCC2OC([n+]3cccc(C(=O)O)c3)C(O)C2O)C(O)C1O` (stereo not drawn) [nicotinic acid adenin dinucleotide], the LC retention time was 8.3 min. The value for `CC(C)=CCCC(C)=CCOC(=O)c1ccccc1` [geranyl benzoate] was 51.3 min; that for `COC(=O)CCS` [methyl-3-mercaptoproprionate] was 33.8 min; that for `COc1cc(-c2[o+]c3cc(O)cc(O)c3cc2O)cc(O)c1O` [petunidin] was 29.7 min. With `NCCc1ccc(O)cc1` [tyramine] the figure was 6.2 min. In the case of `N[C@@H](CCCCN[C@@H](CCC(=O)O)C(=O)O)C(=O)O` [L-saccharopine], the LC retention time is 1.38 min. The value for `NC(=O)NCCC[C@H](N)C(=O)O` [L-citrulline] was 1.4 min; that for `COc1cc(-c2oc3cc(O)cc(O)c3c(=O)c2O)cc(OC)c1O` [syringetin] was 37.4 min; that for `Cc1c(C)c2c(c(C)c1O)CCC(C)(CCCC(C)CCCC(C)CCCC(C)C)O2` (stereo not drawn) [alpha-tocopherol] was 59.2 min. With `O=C(O)CCCCC(=O)O` [adipic acid] the figure was 15.5 min; with `Oc1cc(O)c2c(c1)OC(c1ccc(O)c(O)c1)C(O)C2c1c(O)cc(O)c2c1OC(c1ccc(O)c(O)c1)C(O)C2` (stereo not drawn) [procyanidin B1], 18.1 min. On to `OCc1ccccc1OC1OC(CO)C(O)C(O)C1O` (stereo not drawn) [D(-)-Salicin], for which the LC retention time was 16.1 min.

As for `CC1OC(OCC2OC(Oc3cc4c(O)cc(O)cc4[o+]c3-c3cc(O)c(O)c(O)c3)C(O)C(O)C2O)C(O)C(O)C1O` (stereo not drawn) [delphinidin 3 rutinoside], the LC retention time is 21.9 min. The value for `COc1cc(-c2oc3cc(=O)cc4oc(C)cc(c2OC2OC(CO)C(O)C(O)C2O)c43)cc(OC)c1O` (stereo not drawn) [methylpyrano malvidin 3-glucoside] was 28.6 min. With `c1ccc2[nH]ccc2c1` [indole] the figure was 28.1 min; with `O=C(C=Cc1ccc(O)c(O)c1)OC1CC(O)(C(=O)O)CC(O)C1O` (stereo not drawn) [chlorogenic acid], 18 min; with `O=C(O)c1ccco1` [furan-2-carboxylic acid], 12.7 min.

For the compound `N[C@@H](CC(=O)O)C(=O)O` [L-aspartic acid], the LC retention time was 1.28 min. The value for `CCCCCCCCN` [octylamine] was 27.6 min; that for `COc1cc(C=CC(=O)OC(C(=O)O)C(O)C(=O)O)ccc1O` (stereo not drawn) [fertaric acid] was 19.5 min. The value for `OCC(O)C(O)C(O)CO` (stereo not drawn) [adonitol] was 1.38 min; that for `Nc1nc2c(ncn2C2CC(O)C(COP(=O)(O)O)O2)c(=O)[nH]1` (stereo not drawn) [2'-deoxyguanosine-5'-phosphate] was 7.99 min. Take `O=c1c(OS(=O)(=O)O)c(-c2ccc(O)c(O)c2)oc2cc(O)cc(O)c12` [quercetin 3-sulfate]: the LC retention time was 27.4 min. With `COC1OC(C(=O)O)C(O)C(O)C1O` (stereo not drawn) [methyl-glucuronide] the figure was 2.4 min; with `C[N+](C)(C)CCO` [choline], 1.4 min; with `CCCCCCCCCCCCCCCCCCCCCC(=O)O` [behenic acid], 58.7 min. `CCC=CCC=CCC=CCCCCCCCC(=O)OC` [methyl linolenate]: the LC retention time was 54.5 min. With `O=C(O)CO` [glycolic acid], the LC retention time was 2.3 min. The value for `CC(O)(CC(=O)O)C(=O)O` (stereo not drawn) [citramalic acid] was 5.18 min; that for `CCCCCCCCCCCCCCCCCC(=O)OC` [methyl stearate] was 57.8 min. With `O=C(C=Cc1ccc(O)c(O)c1)OC(C(=O)O)C(O)C(=O)O` (stereo not drawn) [caftaric acid] the figure was 15.5 min. Regarding `CCOC(=O)c1cc(O)c(O)c(O)c1` [ethyl gallate], the LC retention time is 23 min.

As to `O=C(O)C=CC(=O)O` [fumaric acid], the LC retention time is 3.54 min. With `CC(C)CCCC(C)C1CCC2C3CC=C4CC(O)CCC4(C)C3CCC12C` (stereo not drawn) [cholesterol] the figure was 60.2 min.

Consider `CC12CCC(CC1=O)C2(C)C` (stereo not drawn) [camphor], for which the LC retention time was 36.5 min. The value for `CCCCCCCCC(=O)O` [nonanoic acid] was 43.1 min; that for `C=Cc1ccc(O)c(OC)c1` [2-methoxy-4-vinylphenol] was 31.3 min.

In the case of `COc1cc(C(=O)O)cc(OC)c1O` [syringic acid], the LC retention time was 21.9 min.

On to `O=C(O)CNC(=O)c1ccccc1` [hippuric acid], for which the LC retention time was 17.3 min.

Turning to `N[C@@H](CCO)C(=O)O` [L-homoserine], the LC retention time was 1.29 min.
